From patent publication US10280163B2 (BeiGene, Ltd., priority 2015, dated 2019)
Where two headings read alike, the source gives them in different places.

What was measured:
[1] = target: T1, Recombinant TDO (Homo sapiens, UniProt P48775); assay: TDO enzymatic assay; format: biochemical
T1 construct: His tag (C); made in house; host or cells: E. coli
Protocol: Recombinant TDO was overexpressed and purified from E. coli cells with a C-terminal His tag. TDO enzymatic assay was performed using the same methodology as IDO1 enzymatic assay except that 100 nM TDO and 0.5 mM L-tryptophan (Km concentration) were used in the TDO assay.

[2] = target: T2, Recombinant IDO1 (Homo sapiens, UniProt P14902); assay: IDO1 enzymatic assay; format: biochemical
T2 construct: His tag (N); made in house; host or cells: E. coli
T2 sequence (P14902 whole entry): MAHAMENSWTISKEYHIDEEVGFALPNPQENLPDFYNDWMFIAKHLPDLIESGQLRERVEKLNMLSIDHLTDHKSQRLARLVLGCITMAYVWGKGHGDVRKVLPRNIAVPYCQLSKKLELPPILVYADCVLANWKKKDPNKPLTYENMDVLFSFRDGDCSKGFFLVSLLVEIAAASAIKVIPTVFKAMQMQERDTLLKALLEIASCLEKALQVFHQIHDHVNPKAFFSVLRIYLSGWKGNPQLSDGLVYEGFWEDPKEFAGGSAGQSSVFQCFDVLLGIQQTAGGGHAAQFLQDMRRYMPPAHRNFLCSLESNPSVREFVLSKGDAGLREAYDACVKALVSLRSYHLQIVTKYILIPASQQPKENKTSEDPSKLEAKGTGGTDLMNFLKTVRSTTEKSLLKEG
Outline: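 N-terminally His-tagged enzyme from E. coli (50 nM) was incubated with compound, 1.3 mM D-tryptophan, 5 mM ascorbate, 6.25 μM methylene blue and 0.4 mg/mL catalase in 50 mM potassium phosphate pH 7.5, 0.1% BSA for 1.5 h at 24° C. N′-formylkynurenine formation was followed at 321 nm for 1 h; IC50 from rate slopes.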

[3] = target: T3, cellular IDO1 in HeLa cells (Homo sapiens, UniProt P14902); assay: HeLa cell-based IDO1 Kyn (kynurenine) production assay; conditions: Table 2, 8-substituted imidazo[1,5-a]pyridines, IFN-γ 100 ng/mL, 48 hours
T3 construct: endogenous in cells; host or cells: HeLa cells (American Type Tissue Culture Collection), induced with human recombinant IFN-γ
T3 sequence (P14902 whole entry): as above
Outline: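 IFN-γ-induced HeLa cells (100 ng/mL) in phenol red-free DMEM with 0.4 mM L-Trp, compounds added together with IFN-γ, 48 h at 37 °C. Supernatant Kyn read at 480 nm after TCA precipitation and 4-(dimethylamino)benzaldehyde reaction. IC50 from four-parameter logistic fit.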

[4] = Table 2, 8-substituted imidazo[1,5-a]pyridines, 100 nM TDO, 0.5 mM L-tryptophan, read-out: Enzyme IC50 (nM) TDO
[5] = Table 2, 8-substituted imidazo[1,5-a]pyridines, 50 nM IDO1, 1.3 mM D-tryptophan, read-out: Enzyme IC50 (nM) IDO1

T1 sequence (P48775 whole entry): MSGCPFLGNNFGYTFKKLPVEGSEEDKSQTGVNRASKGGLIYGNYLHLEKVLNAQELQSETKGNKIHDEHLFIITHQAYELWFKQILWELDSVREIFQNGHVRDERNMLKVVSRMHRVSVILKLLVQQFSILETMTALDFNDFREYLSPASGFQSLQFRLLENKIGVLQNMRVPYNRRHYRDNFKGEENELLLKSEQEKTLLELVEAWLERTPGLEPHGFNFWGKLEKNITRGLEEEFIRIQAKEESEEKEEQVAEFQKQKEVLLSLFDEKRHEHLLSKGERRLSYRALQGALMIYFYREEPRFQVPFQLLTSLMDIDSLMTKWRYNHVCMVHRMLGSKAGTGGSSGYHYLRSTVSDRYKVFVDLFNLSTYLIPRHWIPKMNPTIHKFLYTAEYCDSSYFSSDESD

SMILES	IC50 [1, 4] [nM]	IC50 [2, 5] [nM]	EC50 [3] [nM]	IC50 ([1]; selectivity examples, read-out: enzymatic IC50 value to TDO) [nM]	IC50 ([2]; selectivity examples, read-out: enzymatic IC50 value to IDO1) [nM]
Cc1cc(C(O)C2CCCCC2)c2cncn2c1 (stereo not drawn) [Example B011, Cyclohexyl (6-methylimidazo[1,5-a]pyridin-8-yl)methanol]	190	170	> 10000		
Cc1cc(C(O)CC2CCCCC2)c2cncn2c1 (stereo not drawn) [Example B012, 2-Cyclohexyl-1-(6-methylimidazo[1,5-a]pyridin-8-yl)ethanol]	130	130	> 10000		
OC(CC1CCCCC1)c1cc(Cl)cn2cncc12 (stereo not drawn) [Example B013, 1-(6-Chloroimidazo[1,5-a]pyridin-8-yl)-2-cyclohexylethan-1-ol]	190	240	> 10000		
OC(c1cc(Cl)cn2cncc12)C1CCCCC1 (stereo not drawn) [Example B014, (6-Chloroimidazo[1,5-a]pyridin-8-yl)(cyclohexyl)methanol]	100	180	> 10000		
Cc1ccn2cncc2c1C(O)CC1CCCCC1 (stereo not drawn) [Example B101, 2-cyclohexyl-1-(7-methylimidazo[1,5-a]pyridin-8-yl)ethan-1-ol]	1000	14	439		
Cc1ccn2cncc2c1C(O)C1CCCCC1 (stereo not drawn) [Example B102, cyclohexyl(7-methylimidazo[1,5-a]pyridin-8-yl)methanol]	360	23	1560		
OC(c1c(I)ccn2cncc12)C1CCCCC1 (stereo not drawn) [Example B103, cyclohexyl(7-iodoimidazo[1,5-a]pyridin-8-yl)methanol]	8000	69	575		
OC(c1c(Cl)ccn2cncc12)C1CCCCC1 (stereo not drawn) [Example B104, (7-chloroimidazo[1,5-a]pyridin-8-yl)(cyclohexyl)methanol]	940	38	2930		
OC(CC1CCCCC1)c1c(Cl)ccn2cncc12 (stereo not drawn) [Example B105, 1-(7-chloroimidazo[1,5-a]pyridin-8-yl)-2-cyclohexylethan-1-ol]			876	4900	33
CC(C)c1ccn2cncc2c1C(O)C1CCCCC1 (stereo not drawn) [Example B106, Cyclohexyl (7-isopropylimidazo[1,5-a]pyridin-8-yl)methanol]	1200	138	457		
OC(c1c(C2CC2)ccn2cncc12)C1CCCCC1 (stereo not drawn) [Example B107, Cyclohexyl (7-cyclopropylimidazo[1,5-a]pyridin-8-yl)methanol]	850	48	256		
CC(C)c1ccn2cncc2c1C(O)CC1CCCCC1 (stereo not drawn) [Example B108, 2-Cyclohexyl-1-(7-isopropylimidazo[1,5-a]pyridin-8-yl)ethan-1-ol]	560	59	389		
OC(c1c(C2CC2)ccn2cncc12)C1CCCC1 (stereo not drawn) [Example B109]	4600	35	940		
OC(CC1CCCCC1)c1c(C2CC2)ccn2cncc12 (stereo not drawn) [Example B110]	1000	53	259		
